In ChEMBL document CHEMBL4818987, “Recent advances of podophyllotoxin/epipodophyllotoxin hybrids in anticancer activity, mode of action, and structure-activity relationship: An update (2010-2020)” (Eur J Med Chem, 2020) one finds IC50 data, which are given here for 28 compounds.

A value given as a limit tells only on which side of the number the result lay.

Common to all, as to format: functional, cell-based
In test [1] the test system is HL-60. Briefly: Antiproliferative activity against human HL-60 cells incubated for 48 hrs by MTT assay. To be noted: HL-60, 48 h. (Formazan colour is commonly taken as a measure of viable cells.)
Test [2] has as its system SW480. Briefly: Antiproliferative activity against human SW480 cells incubated for 48 hrs by MTT assay. To be noted: SW480, 48 h.
The subject of test [3] is SMMC-7721. Briefly: Antiproliferative activity against human SMMC-7721 cells incubated for 48 hrs by MTT assay. The note with it: SMMC-7721, 48 h.
The test system of test [4] is A549. Briefly: Antiproliferative activity against human A549 cells incubated for 48 hrs by MTT assay. The note with it: A549, 48 h.
Test [5] relates to MCF7. Briefly: Antiproliferative activity against human MCF7 cells incubated for 48 hrs by MTT assay. The note with it: MCF7, 48 h.
In test [6] the test system is MKN-45. Briefly: Antiproliferative activity against human MKN-45 cells incubated for 48 to 72 hrs by MTT assay.
The test system of test [7] is HepG2. Briefly: Antiproliferative activity against human HepG2 cells incubated for 48 to 72 hrs by MTT assay.
Test [8] concerns NCI-H1993. Kind of test: Antiproliferative activity against human NCI-H1993 cells incubated for 48 to 72 hrs by MTT assay.
Test [9] relates to B16. Kind of test: Antiproliferative activity against […] cells incubated for 48 to 72 hrs by MTT assay. To be noted: Mus musculus.

Take `COc1cc([C@@H]2c3cc4c(cc3[C@H](OC(=O)CCCCCNC(=O)CCCC[C@@H]3SC[C@@H]5NC(=O)N[C@@H]53)[C@H]3COC(=O)[C@H]23)OCO4)cc(OC)c1OC`: the 50% inhibitory concentration (IC50) in test [1], in [2], in [3], in [4] and in test [5] was > 130 nM throughout.
For `COc1cc(C(=O)/C=C/c2ccncc2)ccc1OCc1cn([C@H]2c3cc4c(cc3[C@@H](c3cc(OC)c(OC)c(OC)c3)[C@H]3C(=O)OC[C@@H]32)OCO4)nn1`, the IC50 in test [6], in [7], in test [8] and in test [9] was 130 nM each time.
Turning to `COc1cc([C@@H]2c3cc4c(cc3[C@H](n3cc(COc5ccc6c(c5)OCO6)nn3)[C@H]3COC(=O)[C@H]23)OCO4)cc(OC)c1OC`, the concentration for half-maximal inhibition (IC50) in [6], in test [7], in test [8] and in test [9] was 130 nM each time.
Take `COc1cc([C@@H]2c3cc4c(cc3[C@@H](OC(=O)CCCCCNC(=O)CCCC[C@@H]3SC[C@@H]5NC(=O)N[C@@H]53)[C@H]3COC(=O)[C@H]23)OCO4)cc(OC)c1O`: the concentration for half-maximal inhibition (IC50) in [1], in test [2], in [3], in [4] and in test [5] was > 130 nM throughout.
As to `COc1cc(C(=O)/C=C/c2ccc(N(C)C)cc2)ccc1OCc1cn([C@H]2c3cc4c(cc3[C@@H](c3cc(OC)c(OC)c(OC)c3)[C@H]3C(=O)OC[C@@H]32)OCO4)nn1`, the IC50 in test [6], in [7], in test [8] and in test [9] was 130 nM each time.
Turning to `COc1cc(C(=O)/C=C/c2ccc(C(F)(F)F)cc2)ccc1OCc1cn([C@H]2c3cc4c(cc3[C@@H](c3cc(OC)c(OC)c(OC)c3)[C@H]3C(=O)OC[C@@H]32)OCO4)nn1`, the concentration for half-maximal inhibition (IC50) in test [6], in test [7], in [8] and in test [9] was 130 nM each time.
On to `COc1cc([C@@H]2c3cc4c(cc3[C@H](n3cc(COc5ccc(-c6ccccc6)cc5)nn3)[C@H]3COC(=O)[C@H]23)OCO4)cc(OC)c1OC`, for which the half-inhibitory concentration (IC50) in test [6], in test [7], in test [8] and in test [9] was 150 nM in each case.
For the compound `COc1ccccc1/C=C/C(=O)c1ccc(OCc2cn([C@H]3c4cc5c(cc4[C@@H](c4cc(OC)c(OC)c(OC)c4)[C@H]4C(=O)OC[C@@H]43)OCO5)nn2)c(OC)c1`, the IC50 in test [6], in test [7], in [8] and in test [9] was 130 nM each time.
Consider `COc1cc([C@@H]2c3cc4c(cc3[C@@H](OC(=O)CCCCCNC(=O)CCCC[C@@H]3SC[C@@H]5NC(=O)N[C@@H]53)[C@H]3COC(=O)[C@H]23)OCO4)cc(OC)c1OC`, for which the IC50 in test [1], in test [2], in test [3], in test [4] and in test [5] was > 130 nM each time.
For `COc1cc([C@@H]2c3cc4c(cc3[C@@H](NC(=O)CCCC[C@@H]3SC[C@@H]5NC(=O)N[C@@H]53)[C@H]3COC(=O)[C@H]23)OCO4)cc(OC)c1OC`, the IC50 in [1], in [2], in test [3], in test [4] and in [5] was > 130 nM each time.
On to `COc1cc(C(C)=O)ccc1OCc1cn([C@H]2c3cc4c(cc3[C@@H](c3cc(OC)c(OC)c(OC)c3)[C@H]3C(=O)OC[C@@H]32)OCO4)nn1`, for which the half-inhibitory concentration (IC50) in test [6], in test [7], in [8] and in [9] was 130 nM throughout.
For `COc1cc([C@@H]2c3cc4c(cc3[C@H](OC(=O)CCCC[C@@H]3SC[C@@H]5NC(=O)N[C@@H]53)[C@H]3COC(=O)[C@H]23)OCO4)cc(OC)c1OC`, the IC50 in [1], in test [2], in test [3], in test [4] and in test [5] was > 130 nM in each case.
As for `COc1ccc(SCc2cn([C@H]3c4cc5c(cc4[C@@H](c4cc(OC)c(OC)c(OC)c4)[C@H]4C(=O)OC[C@@H]43)OCO5)nn2)cc1`, the 50% inhibitory concentration (IC50) in test [6], in test [7], in [8] and in test [9] was 130 nM throughout.
Consider `COc1ccc(/C=C/C(=O)c2ccc(OCc3cn([C@H]4c5cc6c(cc5[C@@H](c5cc(OC)c(OC)c(OC)c5)[C@H]5C(=O)OC[C@@H]54)OCO6)nn3)c(OC)c2)cc1OC`, for which the IC50 in test [6], in test [7], in test [8] and in [9] was 130 nM in each case.
As for `COc1ccc(SCc2cn([C@H]3c4cc5c(cc4[C@@H](c4cc(OC)c(OC)c(OC)c4)[C@H]4C(=O)OC[C@@H]43)OCO5)nn2)cc1OC`, the IC50 in [6], in [7], in test [8] and in [9] was 130 nM throughout.
Consider `COc1cc(C(=O)/C=C/c2ccsc2)ccc1OCc1cn([C@H]2c3cc4c(cc3[C@@H](c3cc(OC)c(OC)c(OC)c3)[C@H]3C(=O)OC[C@@H]32)OCO4)nn1`, for which the half-maximal inhibitory concentration (IC50) in test [6], in [7], in [8] and in [9] was 130 nM each time.
As for `COc1cc(C(=O)/C=C/c2cc(OC)c(OC)c(OC)c2)ccc1OCc1cn([C@H]2c3cc4c(cc3[C@@H](c3cc(OC)c(OC)c(OC)c3)[C@H]3C(=O)OC[C@@H]32)OCO4)nn1`, the IC50 in [6], in test [7], in [8] and in test [9] was 130 nM each time.
On to `COc1ccc(OC(C)(C)c2cn([C@H]3c4cc5c(cc4[C@@H](c4cc(OC)c(OC)c(OC)c4)[C@H]4C(=O)OC[C@@H]43)OCO5)nn2)cc1`, for which the half-inhibitory concentration (IC50) in test [6], in [7], in test [8] and in [9] was 130 nM in each case.
Regarding `COc1cc([C@@H]2c3cc4c(cc3[C@@H](NC(=O)CCCCCNC(=O)CCCC[C@@H]3SC[C@@H]5NC(=O)N[C@@H]53)[C@H]3COC(=O)[C@H]23)OCO4)cc(OC)c1O`, the IC50 in [1], in [2], in [3], in [4] and in test [5] was > 130 nM throughout.
Take `COc1cc([C@@H]2c3cc4c(cc3[C@H](n3cc(CNC(=O)c5ccc(Cl)cc5)nn3)[C@H]3COC(=O)[C@H]23)OCO4)cc(OC)c1OC`: the IC50 in [6], in [7], in [8] and in test [9] was 130 nM throughout.
Take `COc1cc([C@@H]2c3cc4c(cc3[C@@H](OC(=O)CCCC[C@@H]3SC[C@@H]5NC(=O)N[C@@H]53)[C@H]3COC(=O)[C@H]23)OCO4)cc(OC)c1OC`: the half-maximal inhibitory concentration (IC50) in test [1], in test [2], in test [3], in test [4] and in [5] was > 130 nM throughout.
Consider `COc1cc([C@@H]2c3cc4c(cc3[C@H](n3cc(CNC(=O)c5ccccc5Cl)nn3)[C@H]3COC(=O)[C@H]23)OCO4)cc(OC)c1OC`, for which the IC50 in test [6], in test [7], in [8] and in test [9] was 130 nM in each case.
With `COc1cc([C@@H]2c3cc4c(cc3[C@H](n3cc(C(C)(C)Oc5ccc([N+](=O)[O-])cc5)nn3)[C@H]3COC(=O)[C@H]23)OCO4)cc(OC)c1OC`, the IC50 in [6], in [7], in test [8] and in test [9] was 130 nM throughout.
With `COc1cc(OC)c(OC)cc1/C=C/C(=O)c1ccc(OCc2cn([C@H]3c4cc5c(cc4[C@@H](c4cc(OC)c(OC)c(OC)c4)[C@H]4C(=O)OC[C@@H]43)OCO5)nn2)c(OC)c1`, the IC50 in test [6], in test [7], in test [8] and in test [9] was 130 nM each time.
For `COc1cc(C(=O)/C=C/c2ccc(F)cc2)ccc1OCc1cn([C@H]2c3cc4c(cc3[C@@H](c3cc(OC)c(OC)c(OC)c3)[C@H]3C(=O)OC[C@@H]32)OCO4)nn1`, the IC50 in [6], in test [7], in [8] and in [9] was 130 nM throughout.
Regarding `COc1cc(C(=O)/C=C/c2cccs2)ccc1OCc1cn([C@H]2c3cc4c(cc3[C@@H](c3cc(OC)c(OC)c(OC)c3)[C@H]3C(=O)OC[C@@H]32)OCO4)nn1`, the IC50 in test [6], in test [7], in test [8] and in [9] was 130 nM each time.
Regarding `CCc1ccc(OC(C)(C)c2cn([C@H]3c4cc5c(cc4[C@@H](c4cc(OC)c(OC)c(OC)c4)[C@H]4C(=O)OC[C@@H]43)OCO5)nn2)cc1`, the IC50 in test [6], in [7], in [8] and in test [9] was 150 nM throughout.
Take `COc1cc([C@@H]2c3cc4c(cc3[C@@H](NC(=O)CCCC[C@@H]3SC[C@@H]5NC(=O)N[C@@H]53)[C@H]3COC(=O)[C@H]23)OCO4)cc(OC)c1O`: the half-inhibitory concentration (IC50) in [1], in test [2], in [3], in [4] and in test [5] was > 130 nM throughout.

The IC50 is the concentration that gives 50% inhibition.
